Holding throughout (type): biochemical
One experiment concerns the target rhVAP-1 (Homo sapiens (Human), UniProt Q16853). Nature of the experiment: VAP-1 fluorometric assay (Amplex Red/HRP, benzylamine substrate). The settings on record: class symbols, ranges defined in μM. On the procedure:
The capability of compounds described herein to inhibit the enzymatic activity of vascular adhesion protein-1 (VAP-1) was determined by fluorometric assay. The assay procedure provided by R&D Systems was modified slightly for use as an inhibitor screening assay. The assay measured the H2O2 generated from the oxidative deamination of benzylamine by rhVAP-1 by converting Amplex® Red to the fluorescent product, resorufin, via horseradish peroxidase (HRP) and H2O2. Reaction buffer was 10 mM NaHCO3, pH 7.4. A standard curve was prepared by serially diluting H2O2 in reaction buffer. A 10 μM solution of resorufin was prepared in reaction buffer and was dispensed to 2 wells. These wells served as positive control for maximum fluorescence. Reaction buffer was added to the individual wells so that the final volume in each well was 100 μL. Amplex Red was diluted to 1 mM in reaction buffer. A 10 U stock of HRP was prepared in reaction buffer. A reaction cocktail was prepared by mixing equal parts 1 mM Amplex Red with 10 U HRP with 3 parts reaction buffers. The reaction cocktail was added to the appropriate wells, so that that final concentration in the well was 0.05 mM Amplex Red and 0.5 U HRP. A 200 μM solution of benzylamine was prepared in reaction buffer. Benzylamine was added to the appropriate wells so that the final concentration was 50 μM. Inhibitors were diluted in DMSO to 20× and distributed to the appropriate wells. LJP-1207 served a positive control. rhVAP-1 was purchased from R&D Systems. The concentration used for each lot was determined so that the activity was equal to the first lot. Two wells were left blank as controls. The plate was incubated for 30 minutes at 37° C., protected from light under foil. The plate was read at 530/35 emission and 590/35 excitation. Data processing was performed using Excel and Prism software.
The capability of compounds described herein to inhibit the enzymatic activity of vascular adhesion protein-1 (VAP-1) was determined by fluorometric assay. The assay procedure provided by R&D Systems was modified slightly for use as an inhibitor screening assay. The assay measured the H2O2 generated from the oxidative deamination of benzylamine by rhVAP-1 by converting Amplex® Red to the fluorescent product, resorufin, via horseradish peroxidase (HRP) and H2O2. Amplex Red, HRP, Benzylamine, inhibitors (with DMSO as vehicle, 0.5% v/v) and rhVAP-1 were added to the wells. Assay was conducted in 10 mM NaHCO3, pH 7.4. A standard curve was prepared by serially diluting H2O2 in reaction buffer. The plate was incubated for 30 minutes at 37° C., protected from light under foil. The plate was read at 530/35 emission and 590/35 excitation. Data processing was performed using Prism software.

Another experiment deals with rhMAO-B (Homo sapiens (Human), UniProt P27338). Nature of the experiment: MAO-Glo assay, MAO-B inhibition. The settings on record: for IC50: class symbols, ranges defined in μM. On the procedure:
(§1) The capability of compounds described herein to inhibit MAO was determined using a modified Promega MAO-Glo™ assay kit. The substrate ((4S)-4,5-dihydro-2-(6-hydroxybenzothiazolyl)-4-thiazolecarboxylic acid) was converted by MAO to produce methyl ester luciferin. The luciferin was then converted by luciferase to produce oxyluciferin and light. The light was measured using a luminescence setting on the plate reader. A standard curve was prepared by serially diluting luciferin in reaction buffer. The standard kit reaction buffer was used—100 mM HEPES (pH 7.5), 5% glycerol. The substrate was dispensed into the wells so that the final concentration for MAO-A inhibition assay would be 10 μM and MAO-B inhibition assay would be […]. Inhibitors were diluted in DMSO to 4× and distributed to the appropriate wells. Clorgyline and Deprenyl served as positive controls. rhMAO-A and rhMAO-B were purchased from Sigma. MAO-A or MAO-B was added to the appropriate wells. The plate was incubated for 1 hour, at room temperature with gentle shaking (90 rpm). The detection agent was added at equal volume (48 μL detection agent to 48 μL reaction). The plate was incubated for 20 minutes, at room temperature with gentle shaking (90 rpm). The plate luminescence was read. Data processing was performed using Prism software.
(§2) The capability of compounds described herein to inhibit MAO was determined using a modified Promega MAO-Glo™ assay. Test compounds, substrate and enzyme were incubated per manufacturer instructions for 1 hour, at room temperature with gentle shaking (90 rpm) before addition of detection agent. The detection agent was added at equal volume (48 μL detection agent to 48 μL reaction). The plate was incubated for 20 minutes, at room temperature with gentle shaking (90 rpm). The plate luminescence was read. Data processing was performed using Prism software.

The target of another experiment is rhMAO-A (Homo sapiens (Human), UniProt P21397). The experiment can be described thus: MAO-Glo assay, MAO-A inhibition. The settings on record: class symbols, ranges defined in μM. On the procedure:
as §1, §2

The term IC50 denotes the midpoint of a concentration-inhibition curve. A lower IC50 goes with higher potency. The term pIC50 denotes −log10 of the IC50, conventionally taken in molar units.

pIC50: −log10 of the molar value. Counter-ions that a name gives are not always drawn.

rhMAO-B, sequence (P27338 whole entry): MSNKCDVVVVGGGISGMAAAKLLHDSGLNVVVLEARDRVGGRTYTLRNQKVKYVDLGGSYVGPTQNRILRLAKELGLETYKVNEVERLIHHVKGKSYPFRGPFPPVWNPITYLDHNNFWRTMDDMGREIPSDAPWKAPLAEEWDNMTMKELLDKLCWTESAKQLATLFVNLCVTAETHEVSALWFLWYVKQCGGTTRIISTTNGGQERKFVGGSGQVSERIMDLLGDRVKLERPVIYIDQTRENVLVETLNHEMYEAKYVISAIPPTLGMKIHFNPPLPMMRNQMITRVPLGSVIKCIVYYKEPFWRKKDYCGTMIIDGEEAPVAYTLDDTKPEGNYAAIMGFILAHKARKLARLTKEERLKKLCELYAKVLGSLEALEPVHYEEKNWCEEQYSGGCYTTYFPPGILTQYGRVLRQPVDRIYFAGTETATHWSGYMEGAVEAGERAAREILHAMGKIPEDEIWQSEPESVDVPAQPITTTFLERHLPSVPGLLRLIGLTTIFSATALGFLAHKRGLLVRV
rhMAO-A, sequence (P21397 whole entry): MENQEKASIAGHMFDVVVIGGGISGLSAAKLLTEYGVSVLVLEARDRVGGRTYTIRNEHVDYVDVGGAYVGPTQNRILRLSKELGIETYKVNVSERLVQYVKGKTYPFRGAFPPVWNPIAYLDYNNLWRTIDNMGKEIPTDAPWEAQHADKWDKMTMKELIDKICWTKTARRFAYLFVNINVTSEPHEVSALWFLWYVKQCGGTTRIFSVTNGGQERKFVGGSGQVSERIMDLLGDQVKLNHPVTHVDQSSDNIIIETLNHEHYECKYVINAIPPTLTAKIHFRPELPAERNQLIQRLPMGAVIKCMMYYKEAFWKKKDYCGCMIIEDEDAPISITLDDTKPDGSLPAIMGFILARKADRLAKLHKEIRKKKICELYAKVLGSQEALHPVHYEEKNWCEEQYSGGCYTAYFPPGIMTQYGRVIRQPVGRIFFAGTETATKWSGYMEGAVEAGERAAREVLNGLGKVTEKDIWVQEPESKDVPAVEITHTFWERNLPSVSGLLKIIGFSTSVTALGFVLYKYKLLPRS
rhVAP-1, sequence (Q16853 whole entry): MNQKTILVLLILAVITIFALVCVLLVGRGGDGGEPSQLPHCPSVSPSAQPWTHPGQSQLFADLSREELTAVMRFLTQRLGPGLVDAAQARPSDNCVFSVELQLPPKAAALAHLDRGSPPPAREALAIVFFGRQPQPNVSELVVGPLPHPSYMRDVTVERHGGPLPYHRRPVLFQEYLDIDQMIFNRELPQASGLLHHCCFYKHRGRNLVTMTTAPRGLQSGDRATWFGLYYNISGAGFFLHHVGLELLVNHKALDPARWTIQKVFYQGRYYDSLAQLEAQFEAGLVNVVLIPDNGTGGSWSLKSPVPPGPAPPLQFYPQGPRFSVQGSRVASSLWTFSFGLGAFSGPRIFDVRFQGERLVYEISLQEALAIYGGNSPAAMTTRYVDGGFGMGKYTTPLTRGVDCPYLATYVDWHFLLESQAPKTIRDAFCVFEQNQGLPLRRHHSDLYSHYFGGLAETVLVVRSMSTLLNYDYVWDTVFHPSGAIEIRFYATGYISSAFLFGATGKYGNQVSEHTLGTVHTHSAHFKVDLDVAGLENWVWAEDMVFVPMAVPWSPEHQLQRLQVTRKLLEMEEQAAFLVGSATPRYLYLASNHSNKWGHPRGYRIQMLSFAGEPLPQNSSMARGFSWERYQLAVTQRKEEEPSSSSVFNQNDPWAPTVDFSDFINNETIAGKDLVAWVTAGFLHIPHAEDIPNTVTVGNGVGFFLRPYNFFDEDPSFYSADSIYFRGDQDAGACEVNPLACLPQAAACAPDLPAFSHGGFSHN

Take `NC/C(=C\F)COc1ccc2nc(NCc3ccccc3)oc2c1` [Example 21, (E)-6-((2-(aminomethyl)-3-fluoroallyl)oxy)-N-benzylbenzo[d]oxazol-2-amine 4-methylbenzenesulfonate]: the IC50 is less than 0.1 µM against rhVAP-1, 0.1 to 1 µM against rhMAO-B and 10 to 30 µM against rhMAO-A.

Turning to `CCCCc1nc2ccc(SC/C(=C/F)CN)cc2o1` [Example 22, (E)-2-(((2-butylbenzo[d]oxazol-6-yl)thio)methyl)-3-fluoroprop-2-en-1-amine 4-methylbenzenesulfonate], the IC50 on rhVAP-1 is less than 0.1 µM; against rhMAO-B, 0.1 to 1 µM; on rhMAO-A it was 10 to 30 µM.

As for `NC/C(=C\F)COc1ccc2nc(NCc3ccncc3)oc2c1` [Example 23, (E)-6-((2-(aminomethyl)-3-fluoroallyl)oxy)-N-(pyridin-4-ylmethyl)benzo[d]oxazol-2-amine 4-methylbenzenesulfonate], the IC50 at rhVAP-1 was less than 0.1 µM; on rhMAO-B it was 1 to 10 µM; against rhMAO-A, 10 to 30 µM.

As for `COc1ccc(CNc2nc3ccc(OC/C(=C/F)CN)cc3o2)cc1` [Example 24, (E)-6-((2-(aminomethyl)-3-fluoroallyl)oxy)-N-(4-methoxybenzyl)benzo[d]oxazol-2-amine 4-methylbenzenesulfonate], the 50% inhibitory concentration (IC50) on rhVAP-1 is less than 0.1 µM; against rhMAO-A, 10 to 30 µM. On rhMAO-B (number printed in cell), the negative logarithm of the IC50 (pIC50) was 6.20.

As to `COc1cccc(CNc2nc3ccc(OC/C(=C/F)CN)cc3o2)c1` [Example 25, (E)-6-((2-(aminomethyl)-3-fluoroallyl)oxy)-N-(3-methoxybenzyl)benzo[d]oxazol-2-amine 4-methylbenzenesulfonate], the IC50 is less than 0.1 µM on rhVAP-1, 0.1 to 1 µM against rhMAO-B and 1 to 10 µM against rhMAO-A.

As to `NC/C(=C\F)COc1ccc2nc(NCc3cccnc3)oc2c1` [Example 26, (E)-6-((2-(aminomethyl)-3-fluoroallyl)oxy)-N-(pyridin-3-ylmethyl)benzo[d]oxazol-2-amine 4-methylbenzenesulfonate], the half-maximal inhibitory concentration (IC50) is less than 0.1 µM against rhVAP-1, 1 to 10 µM at rhMAO-B and 10 to 30 µM on rhMAO-A.

With `CCCCc1nc2ccc(C(=CF)CN)cc2o1` [Example 27, 2-(2-butylbenzo[d]oxazol-6-yl)-3-fluoroprop-2-en-1-amine 4-methylbenzenesulfonate], the IC50 at rhVAP-1 is less than 0.1 µM; at rhMAO-B, 10 to 30 µM; against rhMAO-A, 1 to 10 µM.

Consider `CCCCc1nc2ccc(COC/C(=C/F)CN)cc2o1` [Example 28, (E)-2-(((2-butylbenzo[d]oxazol-6-yl)methoxy)methyl)-3-fluoroprop-2-en-1-amine], for which the 50% inhibitory concentration (IC50) against rhVAP-1 is less than 0.1 µM; on rhMAO-B, less than 0.1 µM; against rhMAO-A it was 10 to 30 µM.

Consider `CCCCc1nc2ccc(C/C(=C/F)CN)cc2o1` [Example 31, (Z)-2-((2-butylbenzo[d]oxazol-6-yl)methyl)-3-fluoroprop-2-en-1-amine], for which the IC50 against rhVAP-1 was less than 0.1 µM; against rhMAO-B, 1 to 10 µM; on rhMAO-A it was 10 to 30 µM.

Regarding `CCCCc1nc2ccc(OCC(CN)=C(F)F)cc2o1` [Example 32, 2-(((2-butylbenzo[d]oxazol-6-yl)oxy)methyl)-3,3-difluoroprop-2-en-1-amine hydrochloride], the figures for the 50% inhibitory concentration (IC50) against rhVAP-1, against rhMAO-B and against rhMAO-A were less than 0.1 µM, 10 to 30 µM and 10 to 30 µM, respectively.

With `CC1CN(c2nc3ccc(OC/C(=C/F)CN)cc3o2)C1` [Example 33, (E)-3-fluoro-2-(((2-(3-methylazetidin-1-yl)benzo[d]oxazol-6-yl)oxy)methyl)prop-2-en-1-amine 4-methylbenzenesulfonate], the 50% inhibitory concentration (IC50) against rhVAP-1 is less than 0.1 µM; on rhMAO-B, 0.1 to 1 µM; against rhMAO-A, 10 to 30 µM.

`NC/C(=C\F)COc1ccc2nc(C34CCC(CC3)CC4)oc2c1` [Example 34, (E)-2-(((2-(bicyclo[2.2.2]octan-1-yl)benzo[d]oxazol-6-yl)oxy)methyl)-3-fluoroprop-2-en-1-amine 4-methylbenzenesulfonate]: the values for the IC50 on rhVAP-1, at rhMAO-B and against rhMAO-A were less than 0.1 µM, 0.1 to 1 µM and 10 to 30 µM, respectively.

For the origin of these results see patent US20230295140A1, “INHIBITORS OF VAP-1” (Acucela Inc., priority 2021, published 2023).
